Assay results taken from paper PMC3870587 (Biochemistry, 2013).
Values joined by “and” are separate entries in the source; they are usually repeats but may differ in a detail not shown here. Identical values can stand only once.

Key:
human MTAP (apo) [1] = target: T1, human MTAP (apo) (Homo sapiens, UniProt Q13126); assay: Isothermal titration calorimetry of ligands binding to apo MTAP in Hepes buffer; conditions: for ΔΔG relative to MTA; contribution of the 9-deazaadenine (protonated N7): binding to apo MTAP, ΔG of MTA subtracted
T1 sequence (Q13126 1-283): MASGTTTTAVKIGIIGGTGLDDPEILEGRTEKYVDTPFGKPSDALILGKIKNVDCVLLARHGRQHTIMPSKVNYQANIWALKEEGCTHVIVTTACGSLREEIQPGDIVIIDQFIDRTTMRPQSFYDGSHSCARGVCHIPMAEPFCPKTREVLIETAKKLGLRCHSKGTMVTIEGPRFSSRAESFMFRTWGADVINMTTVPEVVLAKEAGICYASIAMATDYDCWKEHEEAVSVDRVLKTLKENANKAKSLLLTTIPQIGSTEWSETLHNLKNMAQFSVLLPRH

human MTAP (apo) [2] = target: T1, human MTAP (apo); assay: Isothermal titration calorimetry of ligands binding to apo MTAP in Tris buffer; conditions: for ΔHTris [n] / −TΔSTris: apo MTAP; for ΔHTris [n]: Tris buffer pH 7.4; for −TΔSTris: Tris; for ΔHcorrection share of total binding free energy: binding to apo MTAP; for ΔHcorrection / −TΔScorrection: without protonation/deprotonation effects
MTAP:phosphate complex [3] = conditions: read-out: dissociation constant (Kd); binding to MTAP:phosphate, ternary complex; ref [9],[10],[11]; cited from earlier work
MTAP:phosphate complex [4] = assay: Binding of TS analogues to the MTAP:phosphate complex; set-up: species or system human; conditions: from 40 nM to 90 pM
[5] = test system: human head and neck cancer; conditions: immunodeficient mice; ref [4],[5]; cited from earlier work
human lung cancer = conditions: immunodeficient mice; ref [4],[5]; cited from earlier work
MTAP = conditions: steady-state kinetic analysis; ref [7],[12]; cited from earlier work
[6] = apo MTAP, Hepes, all three sites or first-listed set of sites
[7] = all three sites or first two sites
[8] = all three sites [3] or first two sites [2]
[9] = apo MTAP, Hepes, second-listed set of sites

CSCC1NC(c2c[nH]c3c(N)ncnc23)[C@@H](O)[C@H]1O (stereo partly shown) [MT-ImmA]
ΔG (human MTAP (apo) [1]; [6]): -9.7 ± 0.1 kcal/mol
ΔHHepes (human MTAP (apo) [1]; [6]): -9.59 ± 0.08 kcal/mol
−TΔSHepes (human MTAP (apo) [1]; [6]): -0.1 ± 0.1 kcal/mol
ΔΔG relative to MTA; contribution of the 9-deazaadenine (protonated N7) (human MTAP (apo) [1]): -1.3 kcal/mol
NumberProton (protons released from the binding of ligand to MTAP) (human MTAP (apo) [2]; [7]): 0.5 and 0.50 ± 0.01
ΔHTris - ΔHHepes (human MTAP (apo) [2]; [7]): -3.23 ± 0.09 kcal/mol
ΔHTris [n] (human MTAP (apo) [2]; [8]): −12.82 ± 0.05 [3] kcal/mol
−TΔSTris (human MTAP (apo) [2]; [7]): 3.1 ± 0.1 kcal/mol
ΔHcorrection share of total binding free energy (human MTAP (apo) [2]): 74%
ΔHcorrection (human MTAP (apo) [2]; [7]): -7.15 kcal/mol and -7.15 ± 0.09 kcal/mol
−TΔScorrection (human MTAP (apo) [2]; [7]): -2.6 ± 0.1 kcal/mol
Kd (MTAP:phosphate complex [3]): 1 nM

Nc1ncnc2c(CN3CC(CSc4ccc(Cl)cc4)[C@H](O)C3)c[nH]c12 (stereo partly shown) [pClPhT-DADMe-ImmA]
Kd (MTAP:phosphate complex [3]): 0.01 nM

CSC[C@H]1CN(Cc2c[nH]c3c(N)ncnc23)C[C@@H]1O [MT-DADMe-ImmA]
ΔG (human MTAP (apo) [1]; [6]): -10.1 kcal/mol and -10.1 ± 0.2 kcal/mol
ΔHHepes (human MTAP (apo) [1]; [6]): -10.2 ± 0.8 kcal/mol
−TΔSHepes (human MTAP (apo) [1]; [6]): 0.1 ± 0.8 kcal/mol
ΔG (human MTAP (apo) [1]; [9]): -9.5 ± 0.1 kcal/mol
ΔHHepes (human MTAP (apo) [1]; [9]): -3 ± 1 kcal/mol
−TΔSHepes (human MTAP (apo) [1]; [9]): -7 ± 1 kcal/mol
ΔΔG relative to MTA; contribution of the 9-deazaadenine (protonated N7) (human MTAP (apo) [1]): -1.7 kcal/mol
NumberProton (protons released from the binding of ligand to MTAP) (human MTAP (apo) [2]; [7]): 0.2 and 0.2 ± 0.1
ΔHTris - ΔHHepes (human MTAP (apo) [2]; [7]): -1.2 ± 0.8 kcal/mol
ΔHTris [n] (human MTAP (apo) [2]; [8]): -11.4 ± 0.2 kcal/mol
ΔHTris [n] (human MTAP (apo) [2]; third site [1]): -10.3 ± 0.4 kcal/mol
−TΔSTris (human MTAP (apo) [2]; [7]): 1.3 ± 0.3 kcal/mol
−TΔSTris (human MTAP (apo) [2]; third site): 0.8 ± 0.4 kcal/mol
ΔHcorrection share of total binding free energy (human MTAP (apo) [2]): 91%
NumberProton (protons released from the binding of ligand to MTAP) (human MTAP (apo) [2]; third site): 1.1 and 1.1 ± 0.2
ΔHTris - ΔHHepes (human MTAP (apo) [2]; third site): -7 ± 1 kcal/mol
ΔHcorrection (human MTAP (apo) [2]; [7]): -9.2 kcal/mol and -9.2 ± 0.9 kcal/mol
−TΔScorrection (human MTAP (apo) [2]; [7]): -0.9 ± 0.9 kcal/mol
ΔHcorrection (human MTAP (apo) [2]; third site): 2 ± 1 kcal/mol
−TΔScorrection (human MTAP (apo) [2]; third site): -12 ± 1 kcal/mol
decrease of Kd, apo MTAP to ternary complex with phosphate (MTAP:phosphate complex [4]): 440 fold
Kd (MTAP:phosphate complex [3]): 0.09 nM
effect on human head and neck cancer [5]: causes remission of human head and neck cancer
effect on human lung cancer (human lung cancer): suppresses the growth and metastases of human lung cancer

5'-methylthioadenosine [MTA, reference compound]
ΔG (human MTAP (apo) [1]; [6]): -11.1 kcal/mol and -11.1 ± 0.4 kcal/mol
ΔHHepes (human MTAP (apo) [1]; [6]): -1.0 ± 0.3 kcal/mol
−TΔSHepes (human MTAP (apo) [1]; [6]): -10.1 kcal/mol and -10.1 ± 0.5 kcal/mol
ΔG (human MTAP (apo) [1]; [9]): -8.4 ± 0.1 kcal/mol
ΔHHepes (human MTAP (apo) [1]; [9]): -6.1 ± 0.2 kcal/mol
−TΔSHepes (human MTAP (apo) [1]; [9]): -2.3 ± 0.2 kcal/mol
Km (MTAP): 1.7 µM

O=P(O)(O)O [phosphate, potassium phosphate]
Kd (human MTAP (apo) [1]; apo MTAP, Hepes, all three sites): 17000 nM
ΔG (human MTAP (apo) [1]; [6]): -6.51 kcal/mol and -6.51 ± 0.06 kcal/mol
ΔHHepes (human MTAP (apo) [1]; [6]): -8.7 ± 0.3 kcal/mol
−TΔSHepes (human MTAP (apo) [1]; [6]): 2.2 ± 0.3 kcal/mol
NumberProton (protons released from the binding of ligand to MTAP) (human MTAP (apo) [2]; [7]): −0.91 ± 0.05
ΔHTris - ΔHHepes (human MTAP (apo) [2]; [7]): 5.9 ± 0.3 kcal/mol
ΔHTris [n] (human MTAP (apo) [2]; [8]): −2.77 ± 0.04 [3] kcal/mol
−TΔSTris (human MTAP (apo) [2]; [7]): -3.74 ± 0.07 kcal/mol
protons absorbed from the buffer on binding to apo MTAP (human MTAP (apo) [2]; pH 7.4): 0.91 ± 0.05
ΔHcorrection (human MTAP (apo) [2]; [7]): -13.1 kcal/mol and -13.1 ± 0.4 kcal/mol
−TΔScorrection (human MTAP (apo) [2]; [7]): 6.6 ± 0.4 kcal/mol
